Measurements as given in patent US20040092571A1, “Pharmaceutical composition” (SANKYO COMPANY, LIMITED, priority 2000, published 2004).
Counter-ions that a name gives are not always drawn.

Columns and labels:
[1] = tested on: cholesterol-fed rabbits; experiment: Effect on the development of atherosclerotic lesion in cholesterol-fed rabbits with chronic endothelial injury; format: in vivo, New Zealand White rabbits; conditions: for Effect on ECD (in words) / Effect on atheroclerotic area of the femoral lesion (in words): Table 2; for The ratio of Atheroclerotic area: femoral artery, oral for 8 weeks after surgery, control 57.4; for The ratio of Atheroclerotic area / ECD (extracellular lipid deposits): Pravastatin 10 mg/kg, Compound A 5 mg/kg; for ECD (extracellular lipid deposits): right femoral artery sections, Elastica-Masson's stain, oral for 8 weeks, control 15.5
From the text: Male New Zealand White rabbits (Kitayama Labes, Japan) weighing 1.0-1.5 kg were meal-fed a chow diet (RC-4, Oriental Bioservice, Japan) supplemented with 0.5% cholesterol, 3% peanut oil, and 3% coconut oil diet for a total of 10 weeks.
The dietary regimen consisted of feeding the cholesterol/fat diet at 40 g for the first 2 weeks, 50 g for 4 weeks, 60 g for final 4 weeks. After 2 week of diet initiation, a chronic endothelial injury was induced in the abdominal aorta and right femoral artery by surgically inserting a sterile, nylon monofilament through the medical saphenous artery of the right leg to the level of the diaphragm. The monofilament was secured and maintained in place for remaining 8 weeks of the study. Animals were randomized on the basis of their total cholesterol levels after 2 week of cholesterol/fat diet. The HMG-CoA reductase inhibitor and the ACAT inhibitor were orally administered both alone and in combination for 8 weeks after surgery.
Femoral artery was photographed for the morphometric analyses by digital camera (Coolpix 990, trade name: product of […].) connected with a computer. The severity of aortic atherosclerosis was estimated as a ratio of surface area of lesion to the intimal surface area of aorta by Photo-retouch software (“Adobe Photoshop 5.0” trade name: product of Adobe Systems Inc.) and the Scion image NIH Imaging Software (“Scion Image 1.61 c MacOs” product of Scion Corporation). (ii) Extracellular Lipid Deposits
Rabbits were anesthetized with intravenous injection of sodium pentobarbital (25 mg/kg) and perfused with saline by using a perfusion apparatus at a constant pressure of 100 mmHg. After perfusion, the aortas were excised, photographed. Analysis of lesional cross-sections on aortas was examined at the right femoral artery. Right femoral artery was fixed in Methanol Carnoy's fixative for at least 24 hours. The segments were embedded in paraffin, and sectioned at 5 μm. Five ribbons of four serilal sections from each segment were cut at 80 μm intervals. A section from each ribbon was treated with Elastica-Masson's stain.
Digital image of each section was collected using a digital camera (Fujix CCD camera system HC-2500: product of Fuji Photo Film Co., Ltd.) attached to Leica microscope at a magnification of 2.5×. The area of each lesional component was extracted using Adobe Photoshop 5.0 (Adobe) for estimation of the quality of the lesions. In sections treated with Elastica-Masson's stain, the region with light green were identified as extracellular matrix (ECM), and extracellular vacuoles and lacunae (white regions) were defined as extracellular lipid deposits (ECD). ECD was measured by average of value dividing area of lesional component by area of lesion using Adobe Photoshop 5.0 and Scion Image 1.61 MacOs.

[2] = tested on: F1b hamsters; experiment: Lipid lowering action in cholesterol/coconut oil-fed F1b hamsters (serum lipids by an enzyme method); format: in vivo, hamster; conditions: for Cholesterol concentration TC (total cholesterol) / Atherogenic index (VLDL+LDL cholesterol/HDL cholesterol) / Cholesterol concentration HDL / Cholesterol concentration VLDL + LDL: serum, oral once a day for 7 days, Pravastatin 3 mg/kg, Compound A 30 mg/kg; for Cholesterol concentration TC (total cholesterol): 17 h fast after final dose, control 253.0; for Atherogenic index (VLDL+LDL cholesterol/HDL cholesterol): control 3.0; for Cholesterol concentration HDL: control 63.6; for Cholesterol concentration VLDL + LDL: control 189.4
Protocol: Eleven-week-old male F1b hamsters were used in the experiment. The animals were fed in metal cages and allowed free access to food, which contained 0.05% cholesterol and 10% coconut oil, and water. The active agents were administered orally in the form of a suspension in 5% gum arabic solution once a day for 7 days. The animals were fasted for 17 hours after the final administration of active agents at which time blood samples were collected under anesthesia. Serum lipids were measured by an enzyme method. In the table, TC indicates total cholesterol, VLDL indicates very low density lipoprotein, LDL indicates low density lipoprotein, HDL indicates high density lipoprotein and compound A indicates N-(1-octyl-5-carboxymethyl-4,6-dimethylindolin-7-yl)-2,2-dimethylpropanamide sulfate.

| SMILES | Effect on ECD (in words) [1] | Effect on atheroclerotic area of the femoral lesion (in words) [1] | The ratio of Atheroclerotic area [1] [%] | ECD (extracellular lipid deposits) [1] [mm^2] | Cholesterol concentration TC (total cholesterol) [2] | Atherogenic index (VLDL+LDL cholesterol/HDL cholesterol) [2] | Cholesterol concentration HDL [2] | Cholesterol concentration VLDL + LDL [2] | Effect on atherogenic index (in words) ([2]; summary of Table 1) | Effect on serum VLDL+LDL cholesterol level (in words) ([2]; summary of Table 1) | Effect on total serum cholesterol level (in words) ([2]; summary of Table 1) |
| --- | --- | --- | --- | --- | --- | --- | --- | --- | --- | --- | --- |
| CCCCCCCCN1CCc2c(C)c(CC(=O)O)c(C)c(NC(=O)C(C)(C)C)c21 [Compound A, N-(1-octyl-5-carboxymethyl-4,6-dimethylindolin-7-yl)-2,2-dimethylpropanamide sulfate] | reduced | reduced | 45.8 | 10.7 | 170.9 | 1.8 | 62.0 | 109.0 | lowered | decreased | decreased |
| CC[C@H](C)C(=O)O[C@H]1C[C@H](O)C=C2C=C[C@H](C)[C@H](CC[C@@H](O)C[C@@H](O)CC(=O)O)[C@H]21 [Pravastatin, (+)-(3R,5R)-3,5-dihydroxy-7-[(1S,2S,6S,8S,8aR)-6-hydroxy-2-methyl-8-[(S)-2-methylbutyryloxy]-1,2,6,7,8,8a-hexahydro-1-napthyl]heptanoic acid, reference compound] | no effect | no effect | 58.3 | 16.6 | 244.0 | 2.3 | 73.3 | 170.6 |  |  |  |
